Common to all, as to assay type: cell-based
Assay [1] relates to hBmal1 gene. Kind of assay: Clock gene expression regulation, hBmal1 expressed amount by RT-PCR in cultured human skin fibroblast cells. The following applies: for Relative expressed amount of hBmal1 (16 hours): 50 ppm test substance, 16 hours after addition, relative to RPLP0, control 0.48, *p < 0.05; for expressed amount of hBmal1 gene in comparison with the control: 50 ppm, 16 hours, Dunnett's test one-sided 5%. On the procedure: (§1) The results above confirm that in an evaluation system using cultured human skin fibroblast cells, clock genes acquire a circadian rhythm when stimulated with cortisol. Because it is desirable to evaluate during a time period when the expressed amount is high, the clock gene expression regulation effects of the test substances were evaluated based on the expressed amount of the clock gene 16 hours after stimulation in the case of hBmal1 and 2 hours after stimulation in the case of hPer1.
(§2) Fibroblasts cells from normal human skin (Cell Application, Inc.) were seeded by methods similar to those used above, each chemical was added on the 6th day of culture to a concentration of 50 ppm, and the cells were sampled after 2 hours and after 16 hours. The same amount of ethanol was added instead of the test substance as a control. RNA was extracted from the cells with a commercial RNA extraction kit, and the expressed amounts of the hBmal1 and hPer1 genes were measured by RT-PCR using a commercial PCR primer (Perfect Real Time Primer, Takara Bio). Similarly, the expressed amount of the housekeeping gene RPLP0 was assayed and used as an internal standard to calculate the expressed amounts of the target genes relative to the expressed amount of RPLP0. Dunnett's multiple comparison test was performed on the obtained values, and an effect was recognized if there was a significant difference with a one-sided 5% risk factor in comparison with the control.

Assay [2] deals with hPer1 gene. As to the kind of experiment: Clock gene expression regulation, hPer1 expressed amount by RT-PCR in cultured human skin fibroblast cells. The following applies: for Relative expressed amount of hPer1 (2 hours): 50 ppm test substance, 2 hours after addition, relative to RPLP0, control 0.24, *p < 0.05; for expressed amount of hPer1 gene in comparison with the control: 50 ppm, 2 hours, Dunnett's test one-sided 5%. The protocol:
as §1, §2

Assay [3] deals with hBmal1 gene. Kind of assay: Induction of circadian rhythm of hBmal1 expression with cortisol in cultured human skin fibroblast cells. The following applies: 50 ng/ml cortisol, 2 hours of treatment, cells sampled over time (FIG. 2). The protocol: (§3) It was confirmed that a circadian rhythm of clock gene expression can be induced in a system using cultured human skin fibroblast cells.
(§4) As the cultured human fibroblast cells, fibroblast cells from normal human skin were purchased (Cell Application, Inc.) and used in the experiments. They were seeded on DMEM medium with 10% FBS, 20 mM HEPES, Glutamax and an antibacterial agent added thereto, and cultured at 37° C. in 5% CO2. On the 6th day of culture, 50 ng/ml of cortisol was added, and after 2 hours of treatment the cells were sampled over time. RNA was extracted from the cells with a commercial RNA extraction kit, and the expressed amounts of the hBmal1 and hPer1 genes were measured by RT-PCR using a commercial PCR primer (Perfect Real Time Primer, Takara Bio). Similarly, the expressed amount of the housekeeping gene RPLP0 was assayed and used as an internal standard to calculate the expressed amounts of the target genes relative to the expressed amount of RPLP0.
(§5) In the body, cortisol and other glucocorticoids are involved in regulating the biological clock in peripheral tissue and the like, and it is thought that blood concentrations of cortisol rise at the time of awakening in the morning, resetting the biological clock. […]

Assay [4] concerns hPer1 gene. As to the kind of experiment: Induction of circadian rhythm of hPer1 expression with cortisol in cultured human skin fibroblast cells. The following applies: 50 ng/ml cortisol, 2 hours of treatment, cells sampled over time (FIG. 2). The protocol:
as §3, §4, §5

`COC(=O)c1ccccc1N` [Methyl 2-aminobenzoate]: in the assay with hBmal1 gene [1], the “Relative expressed amount of hBmal1 (16 hours)” value is 1.19* and the “expressed amount of hBmal1 gene in comparison with the control” value (“expressed amount of hBmal1 gene” for short) was “significantly increased”. In the assay on hPer1 gene [2], the “Relative expressed amount of hPer1 (2 hours)” value was 0.64* and the “expressed amount of hPer1 gene in comparison with the control” value (from here on “expressed amount of hPer1 gene”) was “significantly increased”.

Take `COC(=O)c1ccccc1C` [Methyl 2-methylbenzoate, methyl 2-methylbenzoate]: in the assay on hBmal1 gene [1], the “Relative expressed amount of hBmal1 (16 hours)” value is recorded as 1.01* and the “expressed amount of hBmal1 gene” value was “significantly increased”. In the assay on hPer1 gene [2], the “Relative expressed amount of hPer1 (2 hours)” value is 0.44* and the “expressed amount of hPer1 gene” value was “significantly increased”.

In the case of `CNc1ccccc1C(=O)OC` [Methyl 2-methylaminobenzoate], in the assay on hBmal1 gene [1], the “Relative expressed amount of hBmal1 (16 hours)” value is listed as 2.52* and the “expressed amount of hBmal1 gene” value was “significantly increased”. Besides, in the assay with hPer1 gene [2], the “Relative expressed amount of hPer1 (2 hours)” value was 0.64* and the “expressed amount of hPer1 gene” value is “significantly increased”.

Consider `C[C@]12CCC(=O)C=C1CC[C@@H]1[C@@H]2[C@@H](O)C[C@@]2(C)[C@H]1CC[C@]2(O)C(=O)CO` [cortisol], for which the “cycle of circadian rhythm of hBmal1 expression as a result of cortisol stimulation” value in the assay with hBmal1 gene [3] was “roughly 24 hour”. Further, the “cycle of circadian rhythm of hPer1 expression as a result of cortisol stimulation” value with hPer1 gene [4] is “roughly 24 hour”.

Consider `C=C1CC[C@H]2O[C@]2(C)CC[C@@H]2[C@@H]1CC2(C)C` [Caryophyllene oxide, (1R,4R,6R,10S)-4,12,12-trimethyl-9-methylene-5-oxatricyclo[8.2.0.04.6]dodecane], for which, in the assay with hBmal1 gene [1], the “Relative expressed amount of hBmal1 (16 hours)” value is recorded as 3.50* and the “expressed amount of hBmal1 gene” value is given as “significantly increased”. In the assay with hPer1 gene [2], the “Relative expressed amount of hPer1 (2 hours)” value is recorded as 2.29* and the “expressed amount of hPer1 gene” value is given as “significantly increased”.

These data come from patent US20140057979A1, “Expression Modulator For Clock Gene” (Shiseido Company, Ltd., priority 2012, published 2014).
